Measurements taken from the NIST ThermoML archive (doi:10.1016/j.fluid.2009.10.018).
± gives the expanded uncertainty stated by the source.

Key:
[1] = excess molar enthalpy (molar enthalpy of mixing); xn = mol fraction of the nth substance listed; conditions: 297.15 K, 101 kPa, Liquid, Constant Pressure Calorimeter
[2] = 101.33 kPa, Liquid, Pycnometric method

C1CCNCC1 [piperidine] + O
[1]
Conditions | excess molar enthalpy [kJ/mol]
x2 = 0 | 0 ± 0.001
x2 = 0.05 | -0.357 ± 0.015
x2 = 0.09 | -0.516 ± 0.021
x2 = 0.15 | -0.753 ± 0.031
x2 = 0.21 | -1.12 ± 0.046
x2 = 0.25 | -1.46 ± 0.06
x2 = 0.3 | -1.68 ± 0.068
x2 = 0.35 | -1.83 ± 0.074
x2 = 0.4 | -1.93 ± 0.079
x2 = 0.45 | -1.99 ± 0.081
x2 = 0.5 | -2.14 ± 0.087
x2 = 0.55 | -2.23 ± 0.09
x2 = 0.6 | -2.22 ± 0.09
x2 = 0.65 | -2.18 ± 0.089
x2 = 0.7 | -2.07 ± 0.084
x2 = 0.75 | -1.96 ± 0.081
x2 = 0.93 | -0.978 ± 0.056
x2 = 0.96 | -0.664 ± 0.055
x2 = 0.99 | -0.233 ± 0.064

c1ccncc1 [pyridine] + O
[1]
Conditions | excess molar enthalpy [kJ/mol]
x2 = 0 | 0 ± 0.001
x2 = 0.05 | -0.117 ± 0.005
x2 = 0.1 | -0.255 ± 0.011
x2 = 0.15 | -0.46 ± 0.019
x2 = 0.2 | -0.654 ± 0.027
x2 = 0.25 | -0.877 ± 0.036
x2 = 0.3 | -1.03 ± 0.042
x2 = 0.35 | -1.19 ± 0.049
x2 = 0.4 | -1.38 ± 0.057
x2 = 0.45 | -1.56 ± 0.064
x2 = 0.5 | -1.63 ± 0.066
x2 = 0.55 | -1.62 ± 0.066
x2 = 0.6 | -1.58 ± 0.064
x2 = 0.65 | -1.53 ± 0.062
x2 = 0.7 | -1.39 ± 0.057
x2 = 0.73 | -1.33 ± 0.054
x2 = 0.89 | -0.646 ± 0.031
x2 = 0.92 | -0.508 ± 0.028
x2 = 0.95 | -0.336 ± 0.026
x2 = 0.98 | -0.152 ± 0.027

O [water] + c1ccncc1
Conditions | excess molar enthalpy [kJ/mol]
[1], x1 = 1 | 0 ± 0.001

c1ccncc1 [pyridine]
[2]
Conditions | mass density [kg/m3]
293.95 K | 981 ± 2
295.35 K | 979.2 ± 2
297.25 K | 977.9 ± 2
299.15 K | 975.3 ± 2
301.25 K | 972.8 ± 2
303.25 K | 971.7 ± 2
305.15 K | 969.9 ± 2
307.25 K | 967.9 ± 2
309.25 K | 965.2 ± 1.9
311.35 K | 963.6 ± 1.9
313.15 K | 961.6 ± 1.9
315.35 K | 959.8 ± 1.9
317.55 K | 956.3 ± 1.9
319.55 K | 953.9 ± 1.9
321.15 K | 953.1 ± 1.9

O [water] + C1CCNCC1
Conditions | excess molar enthalpy [kJ/mol]
[1], x1 = 1 | 0 ± 0.001

C1CCNCC1 [piperidine]
[2]
Conditions | mass density [kg/m3]
293.65 K | 873.5 ± 1.8
296.05 K | 867.1 ± 1.8
298.15 K | 864.6 ± 1.8
300.05 K | 856.3 ± 1.7
302.65 K | 852.4 ± 1.7
304.55 K | 852.6 ± 1.7
306.45 K | 852.5 ± 1.7
308.25 K | 850.6 ± 1.7
310.35 K | 846.3 ± 1.7
313.75 K | 842.2 ± 1.7
315.15 K | 840.8 ± 1.7
317.35 K | 837.7 ± 1.7
319.15 K | 835.3 ± 1.7
321.15 K | 833.5 ± 1.7
323.05 K | 831.4 ± 1.7
